Where a SMILES comes first, the peptide text is derived from it. [ ]: non-standard residue; d: D form. AEEA = NCCOCCOCC(=O)O
What was measured:
[1] = test system: UV13-1 tumour cells; assay: murine skin tumour model, peptide trialled as vaccine antigen; type: in vivo, mice; settings: 5 nmol sub-cutaneous 21 and 7 days prior to transfer of UV13-1 tumour cells
Protocol: FIG. 1—Peptide administration leads to accelerated skin tumour growth. Mice received sub-cutaneous injections of mixtures containing 5 nmol peptide RP23 (SEQ ID NO:12) (solid line), PBS or liposome controls (dotted line) 21 and 7 days prior to transfer of UV13-1 tumour cells. […] Difference in survival was analysed statistically using a log-rank test.
The inventors initially trialled RP23 (SEQ ID NO: 12) as a vaccine antigen in a murine skin tumour model. […] They then assessed whether RP23 could reduce inflammation in a murine model of contact dermatitis, using a contact hypersensitivity assay (FIG. 2a). […] Using RP23, the inventors carried out a dose-response assay to titrate the immune suppression. Using three doses in the low nanomole range (2, 5 or 10 nmol, about 0.3 0.8, 1.6 mg/kg), a dose-dependent reduction in ear swelling of up to 100% compared to controls was observed (FIG. 3c). […] Further, in a murine model of imiquimod-induced psoriasis (FIG. 4a), a single injection of RP23 reduced local erythema, skin thickness and scaling (FIG. 4b,c).

[2] = test system: C57BL/6 mice; assay: imiquimod-induced psoriasis model; type: in vivo
Protocol: FIG. 4—Peptide administration reduces local disease severity in a mouse model of psoriasis. (A) Experimental outline (B) Clinical scores of mice receiving PBS or peptide RP23 (SEQ ID NO:12) injection, compared to daily (0-4 days) topical application of glucocorticoid on the back and ear. (C) Measures of disease local to the peptide RP23 injection site. Redness was measured using an unbiased erythema meter and skin thickness by manual callipers. (D) Spleen weight at day 5 as a measure of systemic immune suppression. […] Data are presented as mean±S.E.M. Statistical significance was determined by ANOVA with Dunnett's multiple comparison test, *p<0.05, **p<0.01, ***p<0.001, ****p<0.0001.
FIG. 10. Therapeutic synergy of RP23 and topical steroid in the murine imiquimod-induced psoriasis model. Aldara cream (5% imiquimod, 57.5 mgs) was applied daily (days 0-4) to the backs of C57BL/6 female mice to induce psoriasis. Clinical scores (PASI), modified psoriasis area and severity index) of mice receiving (A) PBS or RP23 injection at day −1, with or without topical application of glucocorticoid (0.05% betamethasone dipropionate, “BD” 30 mgs) on the back at day 0 (B) PBS or RP23 injection at day 1 and topical application of glucocorticoid at day 1, in comparison to PBS injection only at day −1. Data are the means+/−SEM (n=5). Statistical significance was determined by ANOVA with Dunnett's multiple comparison test to PBS only control, *p<0.05, **p<0.01, ***p<0.001, ****p<0.0001.
The backs of 8-week old female C57BL/6 mice (Australian BioResources) were coarse shaved. A minimum of 24 hours later, 10 nmol RP23 was delivered via sub-cutaneous injection at the lower back in 200 μl phosphate buffered saline (PBS). Groups of mice acting as positive controls for disease development received injection of PBS only. One or seven days later, psoriasis-like inflammation was induced via topical application of 5% imiquimod cream (Aldara, Inova Pharmaceuticals) to the shaved back (57.5 mgs) and one ear (5 mg, divided between dorsal and ventral sides). The contralateral ear served as a negative control for imiquimod-induced inflammation. Imiquimod application was repeated daily for four consecutive days. C57BL/6 mice experience rapid weight loss (up to 20%) upon application of imiquimod cream. Supportive care was provided in the form of dietary supplementation commenced 2 days prior to imiquimod application, and intra-peritoneal injection of 300 μl sterile PBS on days two and three of imiquimod application. Disease progression was monitored for five days, by recording weight loss and grading disease of the back skin using a modified Psoriasis Area and Severity Index (PASI) clinical scoring system, that assessed only disease severity. Additionally, erythema meter (DSM II ColorMeter, Cortex Technology, Denmark) readings were taken at four quadrants on the back skin and skin backfold thickness measurements were recorded using manual callipers. Disease progression of the ear skin was determined by recording ear thickness, measured by manual callipers. As a positive control for immune suppressive therapy, groups of mice received daily topical application of betamethasone dipropionate 0.05% (MSD) cream (30 mgs on the back, 10 mgs on the ear).
Aldara cream (5% imiquimod, 57.5 mgs) was applied daily (days 0-4) to the backs of C57BL/6 female mice to induce psoriasis. Clinical scores (PASI, modified psoriasis area and severity index) of mice receiving prophylactic PBS or RP23 (at day −1), with or without topical application of glucocorticoid (0.05% betamethasone dipropionate, 30 mgs) to the back at day 0, were determined (FIG. 10A).
RP23 and BD therapy were also tested when given synergistically at a therapeutic timepoint (at day 1). Psoriasis was induced as above, but clinical scores were determined daily for 10 days after ceasing imiquimod application at day 5, to record the rate and degree of psoriasis disease resolution (FIG. 10B).

[3] = test system: primary murine splenic dendritic cells; assay: LPS-stimulated murine splenocytes, DC activation (flow cytometry); type: cell-based
Protocol: FIG. 5—Peptide administration reduces the activation of pro-inflammatory DCs and macrophages. (A) C57BL/6 murine splenocytes were stimulated with LPS±peptide RP23 (SEQ ID NO:12) and expression of activation markers on DCs was assessed by flow cytometry. (B) Bone marrow derived murine macrophages were incubated with peptide RP23 (30 mins) and stimulated with LPS (overnight). Positive controls were stimulated with LPS only. Negative controls were unstimulated. Inflammatory cytokine production was assessed by ELISA. (C) CD14+ cells were isolated from human blood and differentiated into macrophages by culturing with human serum. Cells were incubated with peptide RP23 (30 mins), then stimulated overnight with LPS (left panel) or imiquimod (right panel). Inflammatory cytokine (IL-6 or IL-12/23) production was assessed by ELISA. Representative of 6 donors. Data are presented as mean±S.E.M. Statistical significance was determined by ANOVA with Dunnett's multiple comparison test, *p<0.05, **p<0.01, ***p<0.001.
Using an in vitro culture system, it was determined whether RP23 could suppress the activity of specific pro-inflammatory immune cells. […] The culture of murine bone marrow derived macrophages with RP23 led to reduced IL-6, MCP-1 and TNF release after LPS-stimulation (FIG. 5b). […]

[4] = test system: dermal dendritic cells; assay: intradermal injection into healthy human skin explants, myeloid cell activation; type: cell-based; settings: intra-dermal injection, overnight culture
Protocol: FIG. 7—Peptide administration reduces spontaneous myeloid cell activation in human skin. (A) Peptide RP23 (SEQ ID NO: 12) was injected intradermally into healthy human skin grafts. Myeloid cell activation was assessed after overnight culture. (B) The effect of peptide RP23 on the spontaneous upregulation of activation markers on myeloid cell subsets in the skin. Data are representative of 6 donors.
Using an in vitro culture system, it was determined whether RP23 could suppress the activity of specific pro-inflammatory immune cells. […] The culture of murine bone marrow derived macrophages with RP23 led to reduced IL-6, MCP-1 and TNF release after LPS-stimulation (FIG. 5b). Similarly, primary human blood derived macrophages had reduced IL-6 and IL-12/23 release after stimulation with either LPS or imiquimod (FIG. 5c).

## CSCC[C@H](NC(=O)COCCOCCNC(=O)[C@H](CCCCN)NC(=O)[C@H](CCCCN)NC(=O)[C@H](CCCCN)NC(=O)[C@@H](N)CCCCN)C(=O)N[C@H](C(=O)N1CCC[C@H]1C(=O)NCC(=O)N[C@H](C(=O)N[C@@H](CCC(N)=O)C(=O)N[C@@H](CO)C(=O)N1CCC[C@H]1C(=O)N[C@@H](Cc1ccccc1)C(=O)N[C@@H](Cc1ccccc1)C(=O)N[C@@H](CC(C)C)C(=O)N[C@@H](CC(C)C)C(=O)N[C@@H](CC(C)C)C(=O)N[C@@H](CC(C)C)C(=O)N[C@@H](CC(C)C)C(=O)N[C@H](C(=O)N[C@H](C(=O)N[C@@H](CC(C)C)C(=O)N[C@H](C(=O)N[C@H](C(=O)N[C@H](C(=O)O)C(C)C)C(C)C)[C@@H](C)O)C(C)C)[C@@H](C)O)[C@@H](C)O)[C@@H](C)O [RP23] (H-KKKK[AEEA]MTPGTQSPFFLLLLLTVLTVV-OH)
[1]
  skin tumour growth: modest increase in tumour growth
  survival of tumour-bearing mice: succumbed to their tumour earlier
[2]; injection at lower back, ear measured
  disease at a distal site (ear thickness): did not suppress disease at a distal site
[2]; single injection
  local erythema: reduced
  scaling: reduced
  skin thickness: reduced
[2]; spleen weight at day 5, distal ear thickness (FIG. 4d)
  systemic immune suppression / locality of effect: isolated to the area in which RP23 was delivered
[3]; LPS stimulation
  expression of surface activation markers: reduced
[3]; data not shown
  secretion of inflammatory chemokines: reduced the secretion of inflammatory chemokines
[4]
  spontaneous activation of dermal dendritic cells: reduced spontaneous activation of dermal dendritic cells
